Assay results as given in US20210386367A1, “DEVICES AND SYSTEMS FOR GASTROINTESTINAL MICROBIOME DETECTION AND MANIPULATION” (Progenity, Inc., priority 2018, published 2021).
Values after ≈ are worked out from the molar mass of the structure shown. Values joined by “and” are separate entries in the source; they are usually repeats but may differ in a detail not shown here. Equal entries are not always repeated. Where two headings read alike, the source gives them in different places.

Legend:
Type in all cases: cell-based
[1] = tested on: Enterococcus faecalis clinical isolates; assay: MIC distribution against clinical isolates
From the text: (§1) As used herein, “minimum inhibitory concentration” or “MIC” refers to the lowest concentration of an antimicrobial agent, for example, an antimicrobial agent as described herein, required to inhibit the growth of an organism.
(§2) Many susceptibility testing methods are known in the art and can be used as described herein (see, e.g., Jorgensen and Ferraro (2009) Clinical Infectious Diseases 49:1749-1755; and Maurer et al. (2017) Infectious Disease Reports 9:6839; the entire contents of each of the foregoing are incorporated herein by reference). For example, antimicrobial susceptibility can be determined using conventional culture based methods such as the broth or agar dilution test. In these dilution tests, the bacterial isolate of interest is inoculated onto different media that include serial dilutions of an antimicrobial agent, and incubated under appropriate conditions (e.g., overnight at 37° C.) to allow for growth to occur. Following the incubation period, the media is examined to determine bacterial growth. The lowest concentration of antibiotic that prevents growth represents the minimal inhibitory concentration (MIC). Broth dilution tests can be miniaturized and mechanized allowing for reproducibility and high throughput.

[2] = tested on: Staphylococcus aureus clinical isolates; assay: MIC distribution against clinical isolates
From the text: as §1, §2

Enterococcus faecalis = assay: Broth microdilution MIC, 50 clinical isolates
Method: (§3) Minimal inhibitory concentration (MIC) values were determined by broth microdilution or agar dilution in accordance with guidelines from the Clinical and Laboratory Standards Institute (CLSI; (1) “Methods for Dilution Antimicrobial Susceptibility Tests for Bacteria That Grow Aerobically; Approved Standard; 11th ed.” CLSI standard M07-A11, 2018; (2) “Performance Standards for Antimicrobial Susceptibility Testing; Twenty-Eighth Informational Supplement,” CLSI document M100-S28, 2018; and (3) “Methods for Antimicrobial Susceptibility Testing of Anaerobic Bacteria; Approved Standard—Eighth Edition,” CLSI document M11-A8, 2012).
(§4) Tested aerobically by broth microdilution: • Escherichia coli, n=50 • Klebsiella spp., n=50 • Pseudomonas aeruginosa, n=50 • Streptococcus spp., n=50 • Staphylococcus aureus, n=50 • Enterococcus faecalis, n=50 • Enterobacter aerogenes, n=50 • Proteus mirabilis, n=50
(§5) Broth microdilution testing of aerobic bacteria was conducted in cation-adjusted Mueller Hinton broth (MHBII). For testing streptococci, lysed horse blood (LHB) was added to MHBII broth at a final concentration of 3%. Where LHB was used, it was added after filtering.
(§6) Broth microdilution susceptibility testing in 96-well microplates was conducted in accordance with CLSI methods (1) and (2). Automated liquid handlers were used to conduct serial dilutions and liquid transfers, including the Multidrop 384 (Labsystems, Helsinki, Finland), Biomek 2000, and the Biomek FX (Beckman Coulter, Fullerton, Calif.). All wells in columns 2 through 12 of a standard 96-well microdilution plate (Costar 3795) were filled with 150 μL of the appropriate diluent. Then, 300 μL of the test agents were added to the wells of column 1 of the plates at 100× the highest final concentration to be tested. Serial two-fold dilutions were made across the rows through column 11 using the Biomek 2000. The wells of column 12 contained no drug and served as the growth control wells. This plate served as the “mother plate” from which MIC assay plates or “daughter plates” were made.
(§7) The daughter plates were loaded with 190 μL per well of the appropriate medium using the Multidrop 384. The daughter plates were created using the Biomek FX which transferred 2 μL of drug solution from each well of a mother plate to each corresponding well of the daughter plate in a single step. A standardized inoculum of each test organism was prepared per CLSI methods (1) to equal a 0.5 McFarland standard, followed by a dilution of 1:20 for aerobes and 1:10 for anaerobes. The plates were then inoculated with 10 μL of the diluted inoculum using the Biomek 2000 from low to high drug concentration, resulting in a final concentration of approximately 5×10^5 CFU/mL per well. An un-inoculated plate was incubated in parallel for each medium for the purpose of assessing solubility of the drug in the test media.
(§8) Inoculated plates were stacked 3 or 4 high, covered with a sterile lid on the top plate, placed into boxes with CO2 planchets (streptococci) or plastic bags (all other isolates). Plates were incubated at 35° C. for 16-24 hr in ambient air for aerobes or for 42-48 hr in the anaerobic environment of the Bactron II anaerobe chamber (Sheldon Manufacturing Co.; Cornelius, Oreg.). Following incubation, the microplates were removed from the incubator and viewed from the bottom using a plate viewer. The MIC values were read and recorded as the lowest concentration of drug that inhibited visible growth of the organism as per CLSI methods (1) and (2).

Streptococcus spp. = assay: Broth microdilution MIC, 54 clinical isolates; details: for Mode: modal MIC
Method: as §3, §4, §5, §6, §7, §8

Streptococcus agalactiae = assay: Broth microdilution MIC, 20 clinical isolates; details: for Mode: modal MIC
Method: as §3, §4, §5, §6, §7, §8

[3] = tested on: Viridans group Streptococcus; assay: Broth microdilution MIC, 15 clinical isolates; details: for Mode: modal MIC
Method: as §3, §4, §5, §6, §7, §8

[4] = MIC 0.06 μg/mL, 50 E. faecalis isolates
[5] = MIC 0.5 μg/mL, 50 E. faecalis isolates
[6] = MIC 2 μg/mL, 50 E. faecalis isolates
[7] = MIC 4 μg/mL, 50 E. faecalis isolates
[8] = MIC 8 μg/mL, 50 E. faecalis isolates
[9] = MIC >8 μg/mL, 50 E. faecalis isolates
[10] = MIC 0.015 μg/mL, 50 S. aureus isolates
[11] = MIC 0.03 μg/mL, 50 S. aureus isolates
[12] = MIC 0.06 μg/mL, 50 S. aureus isolates
[13] = MIC 1 μg/mL, 50 S. aureus isolates
[14] = MIC 2 μg/mL, 50 S. aureus isolates
[15] = MIC 4 μg/mL, 50 S. aureus isolates
[16] = MIC 8 μg/mL, 50 S. aureus isolates
[17] = MIC >8 μg/mL, 50 S. aureus isolates
[18] = 54 Streptococcus spp. clinical isolates
[19] = 20 Streptococcus agalactiae clinical isolates
[20] = 15 Viridans group Streptococci clinical isolates
[21] = MIC 32 μg/mL, 50 S. aureus isolates
[22] = MIC >32 μg/mL, 50 E. faecalis isolates

## COc1c(N2C[C@@H]3CCCN[C@@H]3C2)c(F)cc2c(=O)c(C(=O)O)cn(C3CC3)c12 [moxifloxacin]
[1]; [4]
  Cumulative percentage of isolates inhibited at MIC: 2.0%
  Number of test isolates at MIC: 1
[1]; [5]
  Cumulative percentage of isolates inhibited at MIC: 52.0%
  Number of test isolates at MIC: 4
[1]; [6]
  Cumulative percentage of isolates inhibited at MIC: 54.0%
  Number of test isolates at MIC: 1
[1]; [7]
  Cumulative percentage of isolates inhibited at MIC: 56.0%
  Number of test isolates at MIC: 1
[1]; [8]
  Cumulative percentage of isolates inhibited at MIC: 66.0%
  Number of test isolates at MIC: 5
[1]; [9]
  Cumulative percentage of isolates inhibited at MIC: 100.0%
  Number of test isolates at MIC: 17
[2]; [10]
  Cumulative percentage of isolates inhibited at MIC: 14.0%
  Number of test isolates at MIC: 7
[2]; [11]
  Cumulative percentage of isolates inhibited at MIC: 30.0%
  Number of test isolates at MIC: 8
[2]; [12]
  Cumulative percentage of isolates inhibited at MIC: 48.0%
  Number of test isolates at MIC: 9
[2]; MIC 0.5 μg/mL, 50 S. aureus isolates
  Number of test isolates at MIC: 4
[2]; [13]
  Cumulative percentage of isolates inhibited at MIC: 84.0%
  Number of test isolates at MIC: 12
[2]; [14]
  Cumulative percentage of isolates inhibited at MIC: 94.0%
  Number of test isolates at MIC: 5
[2]; [15]
  Cumulative percentage of isolates inhibited at MIC: 96.0%
  Number of test isolates at MIC: 1
[2]; [16]
  Cumulative percentage of isolates inhibited at MIC: 98.0%
  Number of test isolates at MIC: 1
[2]; [17]
  Cumulative percentage of isolates inhibited at MIC: 100.0%
  Number of test isolates at MIC: 1
[2]; MIC […], 50 S. aureus isolates
  Number of test isolates at MIC: 1
Enterococcus faecalis
  Mode: >8 µg/mL
Enterococcus faecalis; Enterococcus faecalis, read-out: MIC50
  MIC50: 0.5 µg/mL (≈ 1.25 µM)
Enterococcus faecalis; Enterococcus faecalis, read-out: MIC90
  MIC90: > 8 µg/mL
Streptococcus spp.; [18]
  MIC range: 0.06 to 8 µg/mL
  Mode: 0.12 µg/mL
Streptococcus spp.; 54 Streptococcus spp. clinical isolates, read-out: MIC50
  MIC50: 0.12 µg/mL (≈ 0.299 µM)
Streptococcus spp.; 54 Streptococcus spp. clinical isolates, read-out: MIC90
  MIC90: 0.5 µg/mL (≈ 1.25 µM)
Streptococcus agalactiae; [19]
  MIC range: 0.06 to 0.25 µg/mL
  Mode: 0.12 µg/mL
Streptococcus agalactiae; 20 Streptococcus agalactiae clinical isolates, read-out: MIC50
  MIC50: 0.12 µg/mL (≈ 0.299 µM)
Streptococcus agalactiae; 20 Streptococcus agalactiae clinical isolates, read-out: MIC90
  MIC90: 0.12 µg/mL (≈ 0.299 µM)
[3]; [20]
  MIC range: 0.06 to 8 µg/mL
  Mode: 0.06 µg/mL
[3]; Streptococcus, 15 Viridans group Streptococci clinical isolates, read-out: MIC50
  MIC50: 0.12 µg/mL (≈ 0.299 µM)
[3]; Streptococcus, 15 Viridans group Streptococci clinical isolates, read-out: MIC90
  MIC90: 4 µg/mL (≈ 9.96 µM)

## CO[C@H]1/C=C/O[C@@]2(C)Oc3c(C)c(O)c4c(O)c(c5c(nc6cc(C)ccn65)c4c3C2=O)NC(=O)/C(C)=C\C=C\[C@H](C)[C@H](O)[C@@H](C)[C@@H](O)[C@@H](C)[C@H](OC(C)=O)[C@@H]1C [rifaximin]
[1]; [5]
  Number of test isolates at MIC: 5
[2]; MIC 0.008 μg/mL, 50 S. aureus isolates
  Cumulative percentage of isolates inhibited at MIC: 8.0%
[2]; [21]
  Cumulative percentage of isolates inhibited at MIC: 100.0%
  Number of test isolates at MIC: 1
[2]; listed as RFX
  Cumulative percentage of isolates inhibited at MIC: 70.0% and 78.0% and 94.0% and 98.0%
Enterococcus faecalis
  MIC50: 2 µg/mL (≈ 2.54 µM)
  MIC90: 4 µg/mL (≈ 5.09 µM)
  Mode: 1 µg/mL
  relative activity among drugs tested: slightly more active than meropenem
Streptococcus spp.
  MIC50: 0.12 µg/mL (≈ 0.153 µM)
  MIC90: 0.25 µg/mL (≈ 0.318 µM)
Streptococcus spp.; [18]
  MIC50: 0.12 µg/mL (≈ 0.153 µM)
  MIC90: 0.25 µg/mL (≈ 0.318 µM)
  MIC range: 0.015 to 0.3 µg/mL
  Mode: 0.12 µg/mL
Streptococcus agalactiae
  MIC50: 0.12 µg/mL (≈ 0.153 µM)
  MIC90: 0.12 µg/mL (≈ 0.153 µM)
Streptococcus agalactiae; [19]
  MIC50: 0.12 µg/mL (≈ 0.153 µM)
  MIC90: 0.12 µg/mL (≈ 0.153 µM)
  MIC range: 0.12 to 0.25 µg/mL
  Mode: 0.12 µg/mL
[3]
  MIC50: 0.06 µg/mL (≈ 0.0763 µM)
  MIC90: 0.12 µg/mL (≈ 0.153 µM)
[3]; [20]
  MIC50: 0.06 µg/mL (≈ 0.0763 µM)
  MIC90: 0.12 µg/mL (≈ 0.153 µM)
  MIC range: 0.015 to 0.1 µg/mL
  Mode: 0.06 µg/mL

## CN[C@H](CC(C)C)C(=O)N[C@H]1C(=O)N[C@@H](CC(N)=O)C(=O)N[C@H]2C(=O)N[C@H]3C(=O)N[C@H](C(=O)N[C@H](C(=O)O)c4cc(O)cc(O)c4-c4cc3ccc4O)[C@H](O)c3ccc(c(Cl)c3)Oc3cc2cc(c3O[C@@H]2O[C@H](CO)[C@@H](O)[C@H](O)[C@H]2O[C@H]2C[C@](C)(N)[C@H](O)[C@H](C)O2)Oc2ccc(cc2Cl)[C@H]1O [vancomycin, Vancomycin]
[1]; [22]
  Cumulative percentage of isolates inhibited at MIC: 100.0%
  Number of test isolates at MIC: 13
[1]; listed as VAN
  Cumulative percentage of isolates inhibited at MIC: 48.0% and 64.0% and 72.0% and 74.0%
[2]; [13]
  Cumulative percentage of isolates inhibited at MIC: 100.0%
Enterococcus faecalis
  % R: 26%
  % S: 74% ^
  Mode: 0.5 µg/mL
Enterococcus faecalis; Enterococcus faecalis
  MIC50: 1 µg/mL (≈ 0.69 µM)
  MIC90: > 32 µg/mL
Enterococcus faecalis; listed as VAN
  % R: 26% ^
Streptococcus spp.; [18]
  MIC range: 0.25 to 1 µg/mL
  Mode: 0.25 µg/mL
Streptococcus spp.; 54 Streptococcus spp. clinical isolates, MXF by FDA breakpoints
  % S: 100%
Streptococcus spp.; Streptococcus
  MIC50: 0.25 µg/mL (≈ 0.173 µM)
  MIC90: 0.5 µg/mL (≈ 0.345 µM)
Streptococcus agalactiae; [19]
  MIC range: 0.25 to 1 µg/mL
  Mode: 0.5 µg/mL
Streptococcus agalactiae; 20 Streptococcus agalactiae clinical isolates, MXF by FDA breakpoints
  % S: 100%
Streptococcus agalactiae; Streptococcus agalactiae
  MIC50: 0.5 µg/mL (≈ 0.345 µM)
  MIC90: 0.5 µg/mL (≈ 0.345 µM)
[3]; [20]
  MIC range: 0.25 to 1 µg/mL
  Mode: 0.5 µg/mL
[3]; 15 Viridans group Streptococci clinical isolates, MXF by FDA breakpoints
  % S: 100%
[3]; Streptococcus
  MIC50: 0.5 µg/mL (≈ 0.345 µM)
  MIC90: 0.5 µg/mL (≈ 0.345 µM)
